Read-outs that look alike come from different tables or passages of the source.
What was measured:
[1] = tested on: IL-1β release in U937 cells after NLRP3 activation; experiment: IC50 determination of IL-1β release inhibition in U937 cells; type: cell-based; conditions: Homo sapiens, read-out: IL-1β IC50 (nM) U937 cells
Protocol: Example 79: IC50 Determination of IL-1β Release Inhibition in U937 Cells The compounds of the present disclosure were tested for their ability to inhibit the IL-1β release in the U937 cells after NLRP3 activation. U937 cells (U-97 CRL 1593.2) were thawed following ATCC's initial culture procedure. […] The growth medium was composed of RPMI1640 medium (Quality Biological 112-040-101), 10% serum (Corning 35-076-CV), Pen/Strep (GIBCO 15140-122), 10 mM Hepes (Quality Biological 118-089-721), 2 mM Glutamax (GIBCO 35050-061), and 100 μg/mL normocin (Invivogen ant-nr)-Differentiating media was prepared by adding Phorbol 12-myristate 13-acetate (PMA) (AdipoGen AG-CN2-0010-M005) to growth medium. A cell suspension was prepared with differentiating media at 500k cells/ml. With an electronic pipet, 200 ul of cell suspension was added to each well (96w white plate Corning 3903) leaving columns 1 and 2 empty. Plates were left in the biosafety cabinet for 15 min and then placed in incubator for 90 hours. Priming media was prepared with assay medium consisting of RPMI 1640 medium, 10 mM Hepes, 2 mM Glutamax and Pen/Strep plus 1 μg/mL LPS (Invivogen tlrl-3pelps). Differentiating media was manually removed and 80 ul of priming media was added to each well with an electronic pipet. The plates were placed in the incubator for 5 hours. […] DMSO). An hour prior to the end of LPS incubation, a separate 96 deep well plate, Plate B, was prepared with 400 μL of assay media per well, then […] of the stock DMSO solution from Plate A was added to each corresponding well. Plate B was covered to avoid media evaporation. In a 50 mL tube, a solution of nigericin in assay media at 50 uM/mL concentration was prepared. To a new 96 deep well plate, Plate C, 200 μL of this nigericin containing media was dispensed to each well and 1 μL of the test compounds from Plate B to each corresponding well was added. Plate C was covered to avoid media evaporation. After 5 hours of priming, all the media from the LPS treated U937 cells was removed manually. To this plate of primed cells, 80 μL/well test compounds from Plate B (assay media+compound) was added in duplicate columns (5 compounds tested per plate). The plate was placed in an incubator for 30 min. […] The plate was placed back in the incubator for 1 hour. At the end of 1 hour, the supernatant from this test plate was transferred to a new 96 well V bottom polypropylene plate which was frozen immediately at -80° C. The plate was transferred to -20° C. the next day and awaited further determination of cytokine IL-Ip level. The release of IL-1β into the cell media was determined by MSD® Multi-Spot Assay System (V-Plex, IL-1B kit, […]-4). Following the manufacture's protocol and using the Alternate Protocol 3, Dilute-In-Plate protocol specifically, the level of IL-IP in the above collected supernatant plate was measured as electrochemiluminescent signals. Using MSD DISCOVERY WORKBENCH® analysis software, the signals were converted to the concentration of IL-1β in each well. The IC50 values of the compounds were calculated using the Graph Pad Prism software based on the IL-1β concentration determined. The detection range of IL-1β using MSD kit was approximately […] (based on various lots of standards purchased from MSD).

[2] = tested on: IL-1β release in THP-1-ASC-GFP cells after NLRP3 activation; experiment: IC50 determination of IL-1β release inhibition in THP-1-ASC-GFP cells; type: cell-based; conditions: THP1-ASC-GFP, read-out: IL-1β IC50 (nM) THP1 cells
Protocol: Example 78: IC50 Determination of IL-1β Release Inhibition in THP-1-ASC-GFP Cells The compounds were tested for their ability to inhibit the IL-1β release in the THP-1-ASC-GFP cells after NLRP3 activation. THP1-ASC-GFP cells (Invivogen […] thawed following Invivogen's initial culture procedure. […] The growth medium was composed of RPM1640 medium (Gibco 32404-014), 10% heat inactivated (HI) serum (Gibco A3840102), Pen/Strep (Quality Biologics 118-089-721), 10 mM Hepes (Quality Biologics 118-089-721), 2 mM Glutamax (GIBCO 35050-061), 100 μg/mL normocin (Invivogen ant-nr), 100 μg/mL Zeocin (Invivogen ant-zn). The growth medium was freshly prepared once a week and sterile filtered. Assay medium consisted of RPMI 1640 medium, 10 mM Hepes, 2 mM Glutamax and Pen/Strep. To the assay medium, 1 μg/mL LPS (Invivogen tlrl-3pelps) was added. A cell suspension was prepared with assay medium and LPS at 1.25M cells per mL. With an electronic pipet, 80 μl of cell suspension was added to U bottom 96 well polystyrene plates (VWR 10062-902) leaving columns 1 and 2 empty. The plates were placed in the incubator for 4 hours. […] DMSO). An hour prior to the end of LPS incubation, a separate 96 deep well plate, Plate B, was prepared with 400 μL of assay media per well, then 2 μL of the stock DMSO solution from Plate A was added to each corresponding well. Plate B was covered to avoid media evaporation. In a 50 mL tube, a solution of nigericin in assay media at […] concentration was prepared. To a new 96 deep well plate, Plate C, 200 μL of this nigericin containing media was dispensed to each well and […] of the test compounds from Plate A to each corresponding well was added. Plate C was covered to avoid media evaporation. After 4 hours of priming, all the media from the LPS treated THP-1 cells in the initial U bottom plate was removed manually. To this plate of primed cells, 80 μL/well test compounds from Plate B was added in duplicate columns (5 compounds tested per plate). The plate was placed in an incubator for 30 min. […] The plate was placed back in the incubator for 1 hour. At the end of 1 hour, the supernatant from this test plate was transferred to a new 96 well V bottom polypropylene plate which was frozen immediately at -80° C. The plate was transferred to -20° C. the next day and awaiting further determination of cytokine IL-1β level. The release of IL-1β into the cell media was determined by MSD® Multi-Spot Assay System (V-Plex, IL-1B kit, […]-4). Following the manufacture's protocol and using the Alternate Protocol 3, Dilute-In-Plate protocol specifically, the level of IL-1β in the above collected supernatant plate was measured as electrochemiluminescent signals. Using MSD DISCOVERY WORKBENCH® analysis software, the signals were converted to the concentration of IL-1β in each well. The IC50 values of the compounds were calculated using the Graph Pad Prism software based on the […] concentration determined. The detection range of IL-1β using MSD kit was approximately […] (based on various lots of standards purchased from MSD).

[3] = U-937, PMA-differentiated U937 cells, LPS priming 5 h, nigericin, average of at least three experiments
[4] = THP-1-ASC-GFP cells, LPS priming 4 h, nigericin, average of at least three experiments

CC(C)n1nc(S(=N)(=O)NC(=O)Nc2c3c(cc4c2CCC4)CCC3)cc1CN1CCC[C@@H]1CO (stereo partly drawn) [Example 20, N-((1,2,3,5,6,7-hexahydro-s-indacen-4-yl)carbamoyl)-5-(((R)-2-(hydroxymethyl)pyrrolidin-1-yl)methyl)-1-isopropyl-1H-pyrazole-3-sulfonimidamide]
IC50 [1, 3]: 5 to 50 nM | IC50 [2, 4]: < 5 nM

Cc1oc(S(=N)(=O)NC(=O)Nc2c3c(cc4c2CCC4)CCC3)cc1CNC(C)C (single isomer, unassigned) [Example 27, N-((1,2,3,5,6,7-hexahydro-s-indacen-4-yl)carbamoyl)-4-((isopropylamino)methyl)-5-methylfuran-2-sulfonimidamide]
IC50 [1, 3]: < 5 nM | IC50 [2, 4]: < 5 nM

Cc1oc(S(=N)(=O)NC(=O)Nc2c3c(cc4c2CCC4)CCC3)cc1CN1CC[C@H](CO)C1 (stereo partly drawn) [Example 6, N-((1,2,3,5,6,7-hexahydro-s-indacen-4-yl)carbamoyl)-4-(((S)-3-(hydroxymethyl)pyrrolidin-1-yl)methyl)-5-methylfuran-2-sulfonimidamide]
IC50 [1, 3]: 5 to 50 nM | IC50 [2, 4]: < 5 nM

Cc1oc(S(=N)(=O)NC(=O)Nc2c3c(cc4c2CCC4)CCC3)cc1CN1CCC[C@@H]1CO (stereo partly drawn) [Example 7, N-((1,2,3,5,6,7-hexahydro-s-indacen-4-yl)carbamoyl)-4-(((R)-2-(hydroxymethyl)pyrrolidin-1-yl)methyl)-5-methylfuran-2-sulfonimidamide]
IC50 [1, 3]: < 5 nM | IC50 [2, 4]: < 5 nM

Cc1oc(S(=N)(=O)NC(=O)Nc2c3c(cc4c2CCC4)CCC3)cc1CN (stereo not drawn) [Example 24, 4-(aminomethyl)-N-((1,2,3,5,6,7-hexahydro-s-indacen-4-yl)carbamoyl)-5-methylfuran-2-sulfonimidamide]
IC50 [1, 3]: 5 to 50 nM | IC50 [2, 4]: < 5 nM

Cn1nc(S(=O)(=O)NC(=O)Nc2c3c(c(F)c4c2CCC4)CCC3)cc1CN1CCC[C@@H]1CO [Example 63, (R)-N-((8-fluoro-1,2,3,5,6,7-hexahydro-s-indacen-4-yl)carbamoyl)-5-((2-(hydroxymethyl)pyrrolidin-1-yl)methyl)-1-methyl-1 H-pyrazole-3-sulfonamide]
IC50 [1, 3]: 5 to 50 nM | IC50 [2, 4]: 5 to 50 nM

Cn1nc(S(=O)(=O)NC(=O)Nc2c3c(c(F)c4c2CCC4)CCC3)cc1CN1CC[C@H](O)C1 [Example 60, (S)-N-((8-fluoro-1,2,3,5,6,7-hexahydro-s-indacen-4-yl)carbamoyl)-5-((3-hydroxypyrrolidin-1-yl)methyl)-1-methyl-1H-pyrazole-3-sulfonamide]
IC50 [1, 3]: 50 to 500 nM | IC50 [2, 4]: 5 to 50 nM

Cc1oc(S(=O)(=O)NC(=O)Nc2c3c(c(Cl)c4c2CCC4)CCC3)cc1CN(C)CC1(O)CCC1 [Example 48, N-((8-chloro-1,2,3,5,6,7-hexahydro-s-indacen-4-yl)carbamoyl)-4-((((1-hydroxycyclobutyl)methyl)(methyl)amino)methyl)-5-methylfuran-2-sulfonamide]
IC50 [1, 3]: 5 to 50 nM | IC50 [2, 4]: < 5 nM

CC(C)NCc1coc(S(=N)(=O)NC(=O)Nc2c3c(cc4c2CCC4)CCC3)c1 (stereo not drawn) [Example 23, N-((1,2,3,5,6,7-hexahydro-s-indacen-4-yl)carbamoyl)-4-((isopropylamino)methyl)furan-2-sulfonimidamide]
IC50 ([1]; U-937, 5 h): < 5 nM | IC50 ([2]; 4 h): < 5 nM

Cc1oc(S(=O)(=O)NC(=O)Nc2c3c(c(F)c4c2CCC4)CCC3)cc1CN1CCC[C@@H]1CO [Example 45, (R)-N-((8-fluoro-1,2,3,5,6,7-hexahydro-s-indacen-4-yl)carbamoyl)-4-((2-(hydroxymethyl)pyrrolidin-1-yl)methyl)-5-methylfuran-2-sulfonamide]
IC50 [1, 3]: 5 to 50 nM | IC50 [2, 4]: < 5 nM

CC(C)NCc1coc([S@@](=N)(=O)NC(=O)Nc2c3c(c(F)c4c2CCC4)CCC3)c1 (single isomer, unassigned) [Example 30]
IC50 [1, 3]: > 500 nM | IC50 [2, 4]: 50 to 500 nM

Cn1nc(S(=O)(=O)NC(=O)Nc2c3c(c(F)c4c2CCC4)CCC3)cc1CN1CC[C@@H](O)C1 [Example 61, (R)-N-((8-fluoro-1,2,3,5,6,7-hexahydro-s-indacen-4-yl)carbamoyl)-5-((3-hydroxypyrrolidin-1-yl)methyl)-1-methyl-1H-pyrazole-3-sulfonamide]
IC50 [1, 3]: 50 to 500 nM | IC50 [2, 4]: 50 to 500 nM

CN(C(=O)c1coc(S(=N)(=O)NC(=O)Nc2c3c(cc4c2CCC4)CCC3)c1)[C@H]1C[C@H](O)C1 (stereo partly drawn) [Example 15, 5-(N-((1,2,3,5,6,7-hexahydro-s-indacen-4-yl)carbamoyl)sulfamidimidoyl)-N-((1r,3r)-3-hydroxycyclobutyl)-N-methylfuran-3-carboxamide]
IC50 [1, 3]: 5 to 50 nM

Cc1oc(S(=O)(=O)NC(=O)Nc2c3c(cc4c2CCC4)CCC3)cc1CN(C)CC1(CO)CCC1 [Example 34, N-((1,2,3,5,6,7-hexahydro-s-indacen-4-yl)carbamoyl)-4-((((1-(hydroxymethyl)cyclobutyl)methyl)(methyl)amino)methyl)-5-methylfuran-2-sulfonamide]
IC50 [1, 3]: 5 to 50 nM

CN(C(=O)c1coc(S(=N)(=O)NC(=O)Nc2c3c(cc4c2CCC4)CCC3)c1)C1CNC1 (stereo not drawn) [Example 17, N-(azetidin-3-yl)-5-(N-((1,2,3,5,6,7-hexahydro-s-indacen-4-yl)carbamoyl)sulfamidimidoyl)-N-methylfuran-3-carboxamide]
IC50 [1, 3]: 50 to 500 nM

— patent US20250388568A1, “NLRP3 INHIBITORS” (Kodiak Sciences Inc., priority 2022, published 2025)
